For series [1] the following is noted: cited from earlier work; for Average weight loss/one year: vs. 3% placebo.
Series [2] can be described thus: Dissolution / solubility observations of ingredients.

Structures can show the parent of a compound that is named as a salt.

For the compound `CC(C)(N)Cc1ccccc1` [ADIPEX, Phentermine], in series [1], the “patients with 5% weight loss/12 weeks” value is on record as 80 % patients, the “patients with 10% weight loss/12 weeks” value is 50 % patients and the “Average weight loss/one year” value is reported as 10%. Take `C[C@H]1[C@H](c2ccccc2)OCCN1C.O=C(O)C(O)C(O)C(=O)O` [ADIPOST]: in series [1], the “patients with 5% weight loss/12 weeks” value was 80 % patients, the “patients with 10% weight loss/12 weeks” value was 50 % patients and the “Average weight loss/one year” value was 10%. On to `CN1CCCC(n2nc(Cc3ccc(Cl)cc3)c3ccccc3c2=O)CC1` (stereo not shown) [Azelastine hydrochloride, Azelastine Hydrochloride], for which the “time to dissolve in purified water with stirring” value in series [2] (added as second ingredient after Purified Water) is reported as “approximately 5 minutes”.

In the case of `C[C@H]1CNCCc2ccc(Cl)cc21` [BELVIQ, Lorcaserin], in series [1] (per year), the “weight loss/year vs. placebo” value was 3-5%. Regarding `C[C@H]1[C@H](c2ccccc2)OCCN1C` [BONTRIL, Phendimetrazine], in series [1], the “patients with 5% weight loss/12 weeks” value is 80 % patients, the “patients with 10% weight loss/12 weeks” value is 50 % patients and the “Average weight loss/one year” value is on record as 10%. Take `C[C@@H](Cc1ccccc1)N(C)Cc1ccccc1` [DIDREX, Benzphetamine]: in series [1], the “patients with 5% weight loss/12 weeks” value is 80 % patients, the “patients with 10% weight loss/12 weeks” value is listed as 50 % patients and the “Average weight loss/one year” value is listed as 10%.

Regarding `CNCCC(Oc1ccc(C(F)(F)F)cc1)c1ccccc1` (stereo not shown) [PROZAC, Fluoxetine], in series [1] (in vivo), the “evidence of weight loss” value is listed as “No evidence of weight loss”. For the compound `CCN(CC)C(C)C(=O)c1ccccc1` (stereo not shown) [TENUATE, Diethylpropion], in series [1], the “patients with 5% weight loss/12 weeks” value is 80 % patients, the “patients with 10% weight loss/12 weeks” value was 50 % patients and the “Average weight loss/one year” value was 10%. With `CC1(C)O[C@@H]2[C@@H](CO[C@@]3(COS(N)(=O)=O)OC(C)(C)O[C@@H]23)O1` [TOPAMAX, Topiramate], the “efficacy (vs. placebo)” value in series [1] (in vivo) is given as “Minimal, if any efficacy”. On to `CCCCCCCCCCC[C@@H](C[C@@H]1OC(=O)[C@H]1CCCCCC)OC(=O)[C@H](CC(C)C)NC=O` [XENICAL, Orlistat], for which, in series [1] (6 months), the “weight loss (vs. placebo)/6 months” value is recorded as 5%. Regarding `CN[C@H]1CC[C@@H](c2ccc(Cl)c(Cl)c2)c2ccccc21` [ZOLOFT, Sertraline], in series [1] (in vivo), the “evidence of weight loss” value is “No evidence of weight loss”. As to “Glycerol ester of hydrogenated rosin [GEHR]”, in series [2], the “solubility in aqueous solutions” value is “poorly soluble”.

The values are drawn from patent US20240122848A1, “APPETITE SUPPRESSANT” (priority 2017, published 2024).
